Read-outs that look alike come from different tables or passages of the source.
Key:
[1] = biological target: T1, hDOR-1 (Homo sapiens, UniProt P41143); experiment: Opioid receptor competitive binding assay, DOR; conditions: for Ki DOR/Ki MOR: Table 12, selectivity for MOR versus DOR (3H-DPDPE, hDOR-1)
T1 construct: purchased Amersham Biosciences; host or cells: stably transfected HEK-293 cells (membrane preparation)
Description: (§1) For selected compounds, Ki for MOR, DOR, and KOR were determined according to the following procedure: Recombinant hMOR-1 membrane preps from stably transfected CHO cells and recombinant hDOR-1 membrane preps from stably transfected HEK-293 cells were purchased from Amersham Biosciences. Guinea pig cerebellum preparations were used for KOR assays.
(§2) Each microassay from an assay plate was filtered through an individual well of a Packard GF/B 96-well filter plate (glass fiber filter) to collect the membranes. Each well was washed twice with 200 μL of ice cold wash buffer (50 mM Tris, pH 7.4). The filter plate was allowed to dry overnight, the back was sealed, and Packard Bioscience Microscint PS scintillation fluid (75 μL) was added to each well, which was then counted for ^3H for 2 minutes using a Packard Bioscience TopCount scintillation counter plate reader.
(§3) Each compound was assayed at 8 concentrations, using half-log serial dilutions. Each concentration was tested in triplicate, and the ^3H cpm were averaged.
(§4) This concentration was determined experimentally by scintillation counting an aliquot of the radioligand stock solution used in the assay.
(§5) Kd=the binding constant for the radioligand.
(§6) This triplicate experiment was repeated three times for the MOR and twice for the DOR and the KOR.

[2] = biological target: T2, KOR (Cavia porcellus, UniProt P41144); experiment: Opioid receptor competitive binding assay, KOR (3H-U-69,593); parameters: species or system guinea pig; conditions: for Ki KOR/Ki MOR: Table 12, selectivity for MOR versus KOR
T2 construct: from tissue; host or cells: guinea pig cerebellum preparation
Description: as §1, §2, §3, §6

[3] = biological target: T3, hMOR-1 (Homo sapiens, UniProt P35372); experiment: Opioid receptor competitive binding assay, MOR (3H-DAMGO)
T3 construct: purchased Amersham Biosciences; host or cells: stably transfected CHO cells (membrane preparation)
Description: as §1, §2, §3, §4, §5, §6

[4] = Ki DOR, Table 6, footnote:, hDOR-1 stably transfected into HEK-293 cells, errors two standard deviations
[5] = Ki KOR, Table 9, 3H-U-69,593, guinea pig cerebellum preps, errors two standard deviations
[6] = Ki MOR, Table 3, 3H-DAMGO, hMOR-1 stably transfected into CHO cells, errors 95% confidence interval

SMILES	Ki [1, 4] [nM]	Ki DOR/Ki MOR [1]	Ki [2, 5] [nM]	Ki KOR/Ki MOR [2]	Ki [3, 6] [nM]	Ki ([2]; read-out: Ki KOR) [nM]	Ki ([3]; read-out: Ki MOR) [nM]	Ki ([1]; read-out: Ki DOR) [nM]
NC(=O)C(Cc1ccccc1)NC(=O)C(Cc1ccccc1)C(O)/C=C/CC(O)C(N)Cc1ccc(O)cc1 (single isomer, unassigned) [(S,R,R,R)-2, (E)-8-Amino-2-benzyl-3,7-dihydroxy-9-(4-hydroxy-phenyl)-non-4-enoic acid (1-carbamoyl-2-phenyl-ethyl)-amide]	1400 ± 300	21	1200 ± 100	18	67 ± 38			
NC(=O)C(Cc1ccccc1)NC(=O)C(Cc1ccccc1)C(O)CCCC(O)C(N)Cc1ccc(O)cc1 (single isomer, unassigned) [(S,R,R,R)-6, 8-Amino-2-benzyl-3,7-dihydroxy-9-(4-hydroxy-phenyl)-nonanoic acid (1-carbamoyl-2-phenyl-ethyl)-amide]						1500 ± 700	120 ± 30	
NC(=O)C(Cc1ccccc1)NC(=O)C(Cc1ccccc1)C(O)/C=C\CC(O)C(N)Cc1ccc(O)cc1 (single isomer, unassigned) [(S,R,R,R)-9, (Z)-8-Amino-2-benzyl-3,7-dihydroxy-9-(4-hydroxy-phenyl)-non-4-enoic acid (1-carbamoyl-2-phenyl-ethyl)-amide]	9200 ± 2100	23	5800 ± 1800	15	400 ± 110			
NC(Cc1ccc(O)cc1)C(O)C/C=C/C(O)C(Cc1ccccc1)C(=O)NCCc1ccccc1 (single isomer, unassigned) [(S,R,R,R)-10, (E)-8-Amino-2-benzyl-3,7-dihydroxy-9-(4-hydroxy-phenyl)-non-4-enoic acid phenethyl-amide]	2900 ± 600	55	2800 ± 600	53	53 ± 6			
NC(Cc1ccc(O)cc1)C(O)C/C=C/C(O)C(Cc1ccccc1)C(=O)NC(CO)Cc1ccccc1 (single isomer, unassigned) [(S,R,R,R)-11, (E)-8-Amino-2-benzyl-3,7-dihydroxy-9-(4-hydroxy-phenyl)-non-4-enoic acid (1-hydroxymethyl-2-phenyl-ethyl)-amide]	960 ± 100	34	3400 ± 1300	120	28 ± 5			
C=CC(O)C(Cc1ccccc1)NC(=O)C(Cc1ccccc1)C(O)/C=C/CC(O)C(N)Cc1ccc(O)cc1 (single isomer, unassigned) [(S,R,R,R)-12, (E)-8-Amino-2-benzyl-3,7-dihydroxy-9-(4-hydroxy-phenyl)-non-4-enoic acid (1-benzyl-2-hydroxy-but-3-enyl)-amide]	570 ± 280	15	970 ± 80	26	37 ± 1			
NC(=O)C(Cc1ccccc1)NC(=O)C(Cc1ccccc1)C(O)/C=C/CC(O)C(N)Cc1ccc(O)cc1 (single isomer, unassigned) [(S,R,S,R)-2, (E)-8-Amino-2-benzyl-3,7-dihydroxy-9-(4-hydroxy-phenyl)-non-4-enoic acid (1-carbamoyl-2-phenyl-ethyl)-amide]	850 ± 30	5	2900 ± 800	18	160 ± 40			
NC(=O)C(Cc1ccccc1)NC(=O)C(Cc1ccccc1)C(O)CCCC(O)C(N)Cc1ccc(O)cc1 (single isomer, unassigned) [(S,R,S,R)-6, 8-Amino-2-benzyl-3,7-dihydroxy-9-(4-hydroxy-phenyl)-nonanoic acid (1-carbamoyl-2-phenyl-ethyl)-amide]						6600 ± 3500	190 ± 20	4000 ± 100
NC(=O)C(Cc1ccccc1)NC(=O)C(Cc1ccccc1)C(O)/C=C\CC(O)C(N)Cc1ccc(O)cc1 (single isomer, unassigned) [(S,R,S,R)-9, (Z)-8-Amino-2-benzyl-3,7-dihydroxy-9-(4-hydroxy-phenyl)-non-4-enoic acid (1-carbamoyl-2-phenyl-ethyl)-amide]	10000 ± 2000	39	1700 ± 400	7	260 ± 70			
NC(=O)C(Cc1ccccc1)NC(=O)C(Cc1ccccc1)C(O)/C=C/CC(O)C(N)Cc1ccc(O)cc1 (single isomer, unassigned) [(S,S,R,R)-2, (E)-8-Amino-2-benzyl-3,7-dihydroxy-9-(4-hydroxy-phenyl)-non-4-enoic acid (1-carbamoyl-2-phenyl-ethyl)-amide]	1200 ± 100	45	1200 ± 700	48	25 ± 5			
NC(=O)C(Cc1ccccc1)NC(=O)C(Cc1ccccc1)C(O)CCCC(O)C(N)Cc1ccc(O)cc1 (single isomer, unassigned) [(S,S,R,R)-6, 8-Amino-2-benzyl-3,7-dihydroxy-9-(4-hydroxy-phenyl)-nonanoic acid (1-carbamoyl-2-phenyl-ethyl)-amide]					95 ± 61	730 ± 270		3000 ± 100
NC(=O)C(Cc1ccccc1)NC(=O)C(Cc1ccccc1)C(O)/C=C\CC(O)C(N)Cc1ccc(O)cc1 (single isomer, unassigned) [(S,S,R,R)-9, (Z)-8-Amino-2-benzyl-3,7-dihydroxy-9-(4-hydroxy-phenyl)-non-4-enoic acid (1-carbamoyl-2-phenyl-ethyl)-amide]	4300 ± 1400	58	1600 ± 100	22	74 ± 12			
NC(Cc1ccc(O)cc1)C(O)C/C=C/C(O)C(Cc1ccccc1)C(=O)NCCc1ccccc1 (single isomer, unassigned) [(S,S,R,R)-10, (E)-8-Amino-2-benzyl-3,7-dihydroxy-9-(4-hydroxy-phenyl)-non-4-enoic acid phenethyl-amide]	1200 ± 300	42	3400 ± 300	120	29 ± 8			
NC(Cc1ccc(O)cc1)C(O)C/C=C/C(O)C(Cc1ccccc1)C(=O)NC(CO)Cc1ccccc1 (single isomer, unassigned) [(S,S,R,R)-11, (E)-8-Amino-2-benzyl-3,7-dihydroxy-9-(4-hydroxy-phenyl)-non-4-enoic acid (1-hydroxymethyl-2-phenyl-ethyl)-amide]	620 ± 80	39	2900 ± 400	180	16 ± 1			
C=CC(O)C(Cc1ccccc1)NC(=O)C(Cc1ccccc1)C(O)/C=C/CC(O)C(N)Cc1ccc(O)cc1 (single isomer, unassigned) [(S,S,R,R)-12, (E)-8-Amino-2-benzyl-3,7-dihydroxy-9-(4-hydroxy-phenyl)-non-4-enoic acid (1-benzyl-2-hydroxy-but-3-enyl)-amide]	620 ± 70	28	770 ± 130	35	22 ± 4			
NC(=O)C(Cc1ccccc1)NC(=O)C(Cc1ccccc1)C(O)/C=C/CC(O)C(N)Cc1ccc(O)cc1 (single isomer, unassigned) [(S,S,R,S)-2, (E)-8-Amino-2-benzyl-3,7-dihydroxy-9-(4-hydroxy-phenyl)-non-4-enoic acid (1-carbamoyl-2-phenyl-ethyl)-amide]	6900 ± 1300	86	1300 ± 100	16	79 ± 23			
NC(=O)C(Cc1ccccc1)NC(=O)C(Cc1ccccc1)C(O)/C=C/CC(O)C(N)Cc1ccc(O)cc1 (single isomer, unassigned) [(S,S,S,R)-2, (E)-8-Amino-2-benzyl-3,7-dihydroxy-9-(4-hydroxy-phenyl)-non-4-enoic acid (1-carbamoyl-2-phenyl-ethyl)-amide]	510 ± 10	57	1300 ± 500	150	8.8 ± 0.7			
NC(=O)C(Cc1ccccc1)NC(=O)C(Cc1ccccc1)C(O)CCCC(O)C(N)Cc1ccc(O)cc1 (single isomer, unassigned) [(S,S,S,R)-6, 8-Amino-2-benzyl-3,7-dihydroxy-9-(4-hydroxy-phenyl)-nonanoic acid (1-carbamoyl-2-phenyl-ethyl)-amide]					98 ± 31	3900 ± 1700		
NC(=O)C(Cc1ccccc1)NC(=O)C(Cc1ccccc1)C(O)/C=C\CC(O)C(N)Cc1ccc(O)cc1 (single isomer, unassigned) [(S,S,S,R)-9, (Z)-8-Amino-2-benzyl-3,7-dihydroxy-9-(4-hydroxy-phenyl)-non-4-enoic acid (1-carbamoyl-2-phenyl-ethyl)-amide]	2200 ± 100	6	6100 ± 3000	16	370 ± 150			
NC(Cc1ccc(O)cc1)C(O)C/C=C/C(O)C(Cc1ccccc1)C(=O)NCCc1ccccc1 (single isomer, unassigned) [(S,S,S,R)-10, (E)-8-Amino-2-benzyl-3,7-dihydroxy-9-(4-hydroxy-phenyl)-non-4-enoic acid phenethyl-amide]	3600 ± 100	170	1800 ± 300	86	21 ± 1			
